Laboratory results taken from BindingDB's records for doi:10.1074/jbc.M114.564278 (University of Michigan, 2014).
pKd: −log10 of the molar value. Where a SMILES comes first, the peptide text is derived from it. [ ]: non-standard residue; d: D form. The star is where a group is joined. X1 = O=C(O)c1cc(NC(=S)*)ccc1-c1c2ccc(=O)cc-2oc2cc(O)ccc12; Ala(3-Me-diazirin-3-yl) = CC1(C[C@H](N)C(=O)O)N=N1; βAla = NCCC(=O)O

Experiments:
[1] = target: T1, Acyl-[acyl-carrier-protein]--UDP-N-acetylglucosamine O-acyltransferase (Escherichia coli (strain K12), UniProt P0A722); test: Fluorescence Polarization Assay; conditions: pH 8
T1 sequence (P0A722 whole entry): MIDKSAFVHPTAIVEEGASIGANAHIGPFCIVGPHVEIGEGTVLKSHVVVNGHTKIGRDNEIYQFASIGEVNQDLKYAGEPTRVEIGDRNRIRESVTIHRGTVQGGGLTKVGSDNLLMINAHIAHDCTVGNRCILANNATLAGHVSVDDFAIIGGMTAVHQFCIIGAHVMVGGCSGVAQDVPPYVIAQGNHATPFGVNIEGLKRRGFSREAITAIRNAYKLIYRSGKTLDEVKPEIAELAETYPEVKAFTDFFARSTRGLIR
Protocol: (§1) The fluorescence polarization assay was performed as previously described [Jenkins et al., ACS Chem. Biol., 7:1170-1177]. In 384-well black Costar plates, LpxA or His6-LpxD were serially diluted while holding the fluorescent peptide at 20 nM in a final volume of 50 μl in 20mM HEPES pH 8.0 (0.01% DMSO). The wells were gently mixed and incubated at 30 °C in the dark for 15 min. Polarization was measured on a SpectraMax M5 plate reader in triplicate with readings taken at λex = 485 nm and λem = 525 nm.

[2] = target: T2, UDP-3-O-(3-hydroxymyristoyl)glucosamine N-acyltransferase (Escherichia coli (strain K12), UniProt P21645); test: Fluorescence Polarization Assay; conditions: pH 8
T2 sequence (P21645 whole entry): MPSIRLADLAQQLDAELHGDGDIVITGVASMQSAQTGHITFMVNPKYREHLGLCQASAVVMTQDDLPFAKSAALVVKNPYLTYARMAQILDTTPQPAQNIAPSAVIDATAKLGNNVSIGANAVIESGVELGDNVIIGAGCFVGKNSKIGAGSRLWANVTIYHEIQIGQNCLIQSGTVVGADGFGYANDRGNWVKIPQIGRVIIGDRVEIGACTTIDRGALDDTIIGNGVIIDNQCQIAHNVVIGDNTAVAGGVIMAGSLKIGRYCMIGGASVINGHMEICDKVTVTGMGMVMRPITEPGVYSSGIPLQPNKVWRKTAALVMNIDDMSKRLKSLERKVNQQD
Protocol: as §1

Compound	pKd [1]	pKd [2]
CSCC[C@H](NC(=O)[C@H](Cc1ccc(O)cc1)NC(=O)[C@H](CC(C)C)NC(=O)[C@H](CC(N)=O)NC(=O)[C@@H](NC(=O)CCNC(=S)Nc1ccc(-c2c3ccc(=O)cc-3oc3cc(O)ccc23)c(C(=O)O)c1)[C@@H](C)O)C(=O)N[C@@H](CC(C)C)C(N)=O [FITC-(βa)TNLYML-CONH2] ({X1-βAla}-TNLYML-NH2)	4.92	4.66
CC[C@H](C)[C@H](NC(=O)[C@H](CC(=O)O)NC(=O)[C@H](Cc1c[nH]c2ccccc12)NC(=O)[C@H](CCCCN)NC(=O)[C@@H]1CCCN1C(=O)[C@H](CC1(C)N=N1)NC(=O)[C@H](CCSC)NC(=O)[C@H](Cc1ccc(O)cc1)NC(=O)[C@H](CC(C)C)NC(=O)[C@H](CC(N)=O)NC(=O)[C@@H](NC(=O)CCNC(=S)Nc1ccc(-c2c3ccc(=O)cc-3oc3cc(O)ccc23)c(C(=O)O)c1)[C@@H](C)O)C(=O)N1CCC[C@H]1C(N)=O [FITC-(βa)TNLYM(L-photoleucine)PKWDIP-CONH2] ({X1-βAla}-TNLYM[Ala(3-Me-diazirin-3-yl)]PKWDIP-NH2)	4.49	5.96
CC[C@H](C)[C@H](NC(=O)[C@H](CC(=O)O)NC(=O)[C@H](Cc1c[nH]c2ccccc12)NC(=O)[C@H](CCCCN)NC(=O)[C@@H]1CCCN1C(=O)[C@H](CC(C)C)NC(=O)[C@H](CCSC)NC(=O)[C@H](Cc1ccc(O)cc1)NC(=O)[C@H](CC1(C)N=N1)NC(=O)[C@H](CC(N)=O)NC(=O)[C@@H](NC(=O)CCNC(=S)Nc1ccc(-c2c3ccc(=O)cc-3oc3cc(O)ccc23)c(C(=O)O)c1)[C@@H](C)O)C(=O)N1CCC[C@H]1C(N)=O [FITC-(βa)TN(L-photoleucine)YMLPKWDIP-CONH2] ({X1-βAla}-TN[Ala(3-Me-diazirin-3-yl)]YMLPKWDIP-NH2)	4.30	5.68
CSCC[C@H](NC(=O)[C@H](Cc1ccc(O)cc1)NC(=O)[C@H](CC(C)C)NC(=O)[C@H](CC(N)=O)NC(=O)[C@@H](NC(=O)CCNC(=S)Nc1ccc(-c2c3ccc(=O)cc-3oc3cc(O)ccc23)c(C(=O)O)c1)[C@@H](C)O)C(=O)N[C@@H](CC(C)C)C(=O)N1CCC[C@H]1C(=O)N[C@@H](CCCCN)C(=O)N[C@@H](Cc1c[nH]c2ccccc12)C(=O)N[C@@H](CC(=O)O)C(=O)N[C@@H](CC1(C)N=N1)C(=O)N1CCC[C@H]1C(N)=O [FITC-(βa)TNLYMLPKWD(L-photoleucine)P-CONH2] ({X1-βAla}-TNLYMLPKWD[Ala(3-Me-diazirin-3-yl)]P-NH2)	4.66	6.10
CSCC[C@H](NC(=O)[C@H](Cc1ccc(O)cc1)NC(=O)[C@H](CC(C)C)NC(=O)[C@H](CC(N)=O)NC(=O)[C@@H](NC(=O)CCNC(=S)Nc1ccc(-c2c3ccc(=O)cc-3oc3cc(O)ccc23)c(C(=O)O)c1)[C@@H](C)O)C(=O)N[C@@H](CC(C)C)C(=O)O [FITC-(βa)TNLYML-COOH] ({X1-βAla}-TNLYML-OH)	5.36	4.44

Next, values leading:

pKd [1]	pKd [2]	Compound
5.68		H-TNLYML-OH [RJPXD33Δ6-COOH]
4.64		H-TNLYML-NH2 [RJPXD33Δ6]
4.77	6.22	CC[C@H](C)[C@H](NC(=O)[C@H](CC(=O)O)NC(=O)[C@H](Cc1c[nH]c2ccccc12)NC(=O)[C@H](CCCCN)NC(=O)[C@@H]1CCCN1C(=O)[C@H](CC(C)C)NC(=O)[C@H](CCSC)NC(=O)[C@H](Cc1ccc(O)cc1)NC(=O)[C@H](CC(C)C)NC(=O)[C@H](CC(N)=O)NC(=O)[C@@H](NC(=O)CCNC(=S)Nc1ccc(-c2c3ccc(=O)cc-3oc3cc(O)ccc23)c(C(=O)O)c1)[C@@H](C)O)C(=O)N1CCC[C@H]1C(N)=O [FITC-(βa)TNLYMLPKWDIP-CONH2] ({X1-βAla}-TNLYMLPKWDIP-NH2)
